The text below walks through data of patent US11591319B2, “Small molecule inducers of autophagy” (Board of Regents, The University of Texas System, priority 2018, dated 2023).

In series [1] the target is BH3 domain of Beclin 1/Bcl-2 (Homo sapiens (Human), UniProt P10415). Description: Beclin 1 BH3 peptide/Bcl-2 AlphaLISA. As to conditions: AlphaLISA with BH3 peptide. The format is binding. The text has this: (§1) To assess selectivity for disruption of binding of the BH3 domain of Beclin 1 to Bcl-2 as compared to that of a pro-apoptotic Bcl-2 family member, we used an AlphaLISA with purified recombinant Bcl-2 and peptides spanning either the BH3 domain (amino acids 105-130) of Beclin 1 or the BH3 domain (amino acids 49-84) of Bax.
Chain of BH3 domain of Beclin 1/Bcl-2 (P10415 1-218): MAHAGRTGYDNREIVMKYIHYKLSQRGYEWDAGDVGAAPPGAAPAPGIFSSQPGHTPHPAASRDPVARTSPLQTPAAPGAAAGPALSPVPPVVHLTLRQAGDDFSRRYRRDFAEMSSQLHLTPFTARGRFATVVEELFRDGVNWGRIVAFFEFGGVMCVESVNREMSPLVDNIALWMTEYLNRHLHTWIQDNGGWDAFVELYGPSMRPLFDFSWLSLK
(§2) The Beclin 1 BH3 peptide consists of an N-terminally linked biotin, a YGGGGS linker, and […] (a.a. 105-130) derived from human Beclin 1. Bax BH3 peptide consists of an N-terminally linked biotin, a YGGGGS linker, and 36 amino acids (a.a. 49-84) derived from human Bax. Biotin-6xHis control peptide consists of an N-terminally linked biotin, a YGGGGS linker, and a 6xHis tag at C-terminus.
(§3) For dose-response AlphaLISA experiments, compounds were serially diluted (2-fold, 7 point) with DMSO and added to BB buffer containing purified recombinant proteins or biotinylated peptides at a final concentration range of 10 μM to 156 nM. Protein or peptide concentrations used in dose-response AlphaLISA experiments were as follows: Beclin1/Bcl-2—300 nM/60 nM; SUMO (internal control for Beclin 1/Bcl-2 AlphaLISA)—20 nM; Beclin 1 BH3/Bcl-2—1000 nM/60 nM; Bax BH3/Bcl-2—100 nM/20 nM; Biotin-6xHis (internal control for BH3/Bcl-2 AlphaLISA)—10

For series [2], the target named is T1, Beclin 1/Bcl-2 interaction (Homo sapiens (Human), UniProt P10415). In words: Beclin 1/Bcl-2 AlphaLISA assay (dose-response). The format is binding. As to conditions: positive control. The text has this: We also developed a high-throughput Beclin 1/Bcl-2 AlphaLISA assay to directly measure the in vitro interaction between Beclin 1 and Bcl-2. AlphaLISA is a bead-based proximity assay that is capable of measuring protein-protein interaction in homogeneous solution.^41 Oxygen singlet molecules are generated by Alpha donor beads upon irradiation at 680 nm and travel to acceptor beads in proximity. […] Thus, a measurable Alpha luminescence signal requires chemical energy transfer between the donor and acceptor beads, and a pair of interacting molecules immobilized on the beads stabilizes bead association to produce measurable Alpha signals.
We used purified recombinant Beclin 1 and Bcl-2 proteins for AlphaLISA, which were optimized for enhanced solubility and expression. Human Beclin 1 was expressed as a fusion protein with StrepII-SUMO at the N-terminus, and three residues on the aromatic finger of Beclin 1 were mutated (F359D/F360D/W361D) to improve solubility and protein stability.^42 These mutations are in the BARA domain, which is far from the BH3 motif recognized by Bcl-2. A recombinant Bcl-2-binding deficient mutant of Beclin 1 (StrepII-SUMO-Beclin 1^ΔBcl-2BD) was used as a negative control. […] For a normalization control, we included a parallel AlphaLISA assay with purified SUMO protein (with an N-terminal StrepII tag and a C-terminal 6xHis tag). The purpose of a normalization control is to eliminate inner filter (false-positive) hits that reduce luminescence signal by interfering with the AlphaLISA assay in ways that are unrelated to the Beclin 1/Bcl-2 interaction. With the normalization control, the interaction of Beclin 1 and Bcl-2 was measured as follows:
All AlphaLISA assays were performed in triplicate in a 384-well format with BB buffer (phosphate-buffered saline supplemented with 0.5% BSA and 1 mM DTT). For the Beclin 1/Bcl-2 AlphaLISA, purified StrepII-SUMO-Beclin 1 was incubated with Bcl-2-6xHis proteins at 300 nM and 60 nM, respectively. For internal control AlphaLISA assays, StrepII-SUMO-6xHis protein (internal control) was used at 20 nM. […] Following the initial incubation, Strep-Tactin Alpha donor (AS106D) and anti-6xHis AlphaLISA acceptor beads (AL128M) were added to a final concentration of 40 μg/mL each and incubated at room temperature in the dark for an additional 1 h. All samples were evaluated in triplicate. Alpha signals were measured by an Envision plate reader (Perkin Elmer). Beclin 1/Bcl-2 Alpha signal was normalized with internal control Alpha signal. The normalized value represents the binding activity of Beclin 1 and Bcl-2. The percent activity of a compound was calculated as the following formula: […]
Protein or peptide concentrations used in dose-response AlphaLISA experiments were as follows: Beclin1/Bcl-2—300 nM/60 nM; SUMO (internal control for Beclin 1/Bcl-2 AlphaLISA)—20 nM; Beclin 1 BH3/Bcl-2—1000 nM/60 nM; Bax BH3/Bcl-2—100 nM/20 nM; Biotin-6xHis (internal control for BH3/Bcl-2 AlphaLISA)—10
Target sequence in this assay (P10415 1-218): as above

Series [3] concerns the target T1, Beclin 1/Bcl-2 interaction. Description: Beclin 1/Bcl-2 split-luciferase assay in HeLa cells. The format is cell-based.
Target sequence in this assay (P10415 whole entry): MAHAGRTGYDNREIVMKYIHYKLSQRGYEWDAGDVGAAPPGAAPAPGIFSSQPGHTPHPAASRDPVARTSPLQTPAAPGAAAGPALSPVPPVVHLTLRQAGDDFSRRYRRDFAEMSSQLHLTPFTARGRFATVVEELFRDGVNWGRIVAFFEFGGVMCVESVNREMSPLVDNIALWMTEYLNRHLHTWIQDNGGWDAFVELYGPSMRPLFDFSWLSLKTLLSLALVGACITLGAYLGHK
Text: The split-luciferase approach relies on the reconstitution of two fragments of firefly luciferase, NLuc (amino acids 2-416) and CLuc (amino acids 398-550) expressed with proteins of interest as fusion partners. Upon the binding of interacting partners, two non-functional fragments of the luciferase are brought into proximity, forming an active luciferase protein. To measure Beclin 1/Bcl-2 interaction with the split-luciferase assay, we created HeLa cell lines expressing N-terminal NLuc-tagged Beclin 1 (NLuc-Beclin 1) and CLuc-tagged Bcl-2 (CLuc-Bcl-2) as split-luciferase reporters. […] Renilla luciferase was constitutively expressed as an internal control. The interaction of Beclin 1/Bcl-2 was measured as relative luminescence units (RLU), which was the calculated ratio of split-luciferase and Renilla luciferase signals: […]
DMSO (neutral control), ABT-737 (positive control), or the library compounds were added to a final concentration of 5 μM and incubated at 37° C. […] After 5 h of incubation, the medium was removed by centrifugation and the activity of Beclin 1/Bcl-2 split-luciferase reporters was measured with Dual-Glo® Luciferase Assay System (Promega). […] Ten microliters of 1× RL buffer (Stop & Glo Reagent) was then added to the sample, the sample was incubated at room temperature for 10 min, and the activity of Renilla luciferase was measured again. […]
For series [4], the system named is HeLa cells stably expressing GFP-LC3. In words: GFP-LC3 puncta quantitation (autophagy). The format is cell-based. As for the experimental part: We used well-established assays to assess their autophagic activity,^45 including (i) quantitation of GFP-LC3 puncta (which label autophagosomes) in the presence and absence of the lysosomal inhibitor, bafilomycin A1 (Baf A1), and (ii) western blot analysis of the conversion of LC3-I to the lipidated, autophagosomal-associated protein, LC3-II in the presence and absence of Baf A1. […] Shorter durations of lower concentrations of compounds (10 μM) also produced similar results. […] Thus, these compounds induce autophagic flux in HeLa cells.
(§4) We assessed whether the induction of autophagy by SW063058 and SW076956 requires Beclin 1 and Bcl-2 using siRNA to knockdown each protein, respectively, in HeLa, cells.

Series [5] has as its system HeLa cells. In words: p62 levels after Beclin 1 or Bcl-2 siRNA knockdown. The format is cell-based. The note with it: cells with either Beclin 1 or Bcl-2 knockdown.
Text: as §4

The test system of a further series is PARP. In words: PARP cleavage (apoptosis). The format is cell-based. The note with it: 10 or 20 μM.
The target in series [6] is Bim/Myc-Bcl-2 interaction (Homo sapiens (Human), UniProt P10415). Description: Co-immunoprecipitation of Bim with Myc-Bcl-2 in HeLa cells. The format is cell-based. As to conditions: 12 h treatment. The source says:
For the two compounds for which we had sufficient supply for large-scale tissue culture experiments (SW063058 and SW076956), we examined their effects on Beclin 1, Bax, and Bim co-immunoprecipitation with Bcl-2.

The next series has as its target BH3 domain of Bax/Bcl-2 (Homo sapiens (Human), UniProt P10415). In words: Bax BH3 peptide/Bcl-2 AlphaLISA. The format is binding. As to conditions: AlphaLISA with BH3 peptide.
Text: as §1, §2, §3

Series [7] deals with HeLa cells that overexpress Bcl-2. Description: CellTiter-Glo cell death in Bcl-2 overexpressing cells. The format is cell-based.
Series [8] relates to HeLa cells. Description: CellTiter-Glo cytotoxicity assay. The format is cell-based. As to conditions: 20 μM.

Chain of BH3 domain of Bax/Bcl-2 (P10415 1-218): as the sequence (P10415 1-218) above
Chain of Bim/Myc-Bcl-2 interaction (P10415 whole entry): as the sequence (P10415 whole entry) above

Regarding `CN(C)CC[C@H](CSc1ccccc1)Nc1ccc(S(=O)(=O)NC(=O)c2ccc(N3CCN(Cc4ccccc4-c4ccc(Cl)cc4)CC3)cc2)cc1[N+](=O)[O-]` [ABT-737], the “binding of the BH3 domain of Beclin 1 to Bcl-2” value in [1] is reported as “nanomolar efficiency”. Besides, the “inhibition of Beclin 1/Bcl-2 Alpha signal” value in series [2] is given as “inhibited in a dose-dependent manner”. For the same compound, the split-luciferase luminescence activity entry in series [3] is recorded as “inhibited in a dose-dependent manner”. Further, the “GFP-LC3 puncta in Bcl-2 knockdown cells” value in [4] (Bcl-2 siRNA) is given as “no further increase in GFP-LC3 puncta”. For the same compound, the “GFP-LC3 puncta in Beclin 1 knockdown cells” value in series [4] (Beclin 1 siRNA) is “no further increase in GFP-LC3 puncta”. Further, in the series with HeLa cells [5], the p62 levels result is “failed to alter p62 levels”. For the same compound, the PARP cleavage entry in the series with PARP is “dose-dependent increase in PARP cleavage”. For the same compound, in [6], the “Bim/Myc-Bcl-2 interaction (co-immunoprecipitation)” value was “disrupt co-immunoprecipitation”. Besides, at BH3 domain of Bax/Bcl-2, the “binding of the BH3 domain of Bax to Bcl-2” value was “nanomolar efficiency”. Also, the “cell death in HeLa cells that overexpress Bcl-2” value in series [7] is recorded as “more pronounced dose-dependent increase in cell death”. Further, the “cytotoxicity (CellTiter-Glo)” value in the series on HeLa cells [8] was “mild cytotoxicity”.
